Results on one substance are retold here after patent US20090214507A1, “METHOD OF TREATING PREVENTING, INHIBITING OR REDUCING DAMAGE TO CARDIAC TISSUE” (RegeneRx Biopharmaceuticals, Inc., priority 2004, published 2009).

Assay [1] relates to ILK / Akt. Kind of assay: ILK localization, expression and activation (immunocytochemistry, Western). It counts as cell-based. The protocol:
Because recruitment of ILK to the focal adhesion complex is important for its activation, the effects of thymosin β4 on ILK localization and expression were assayed. […] Because thymosin β4 sequesters the pool of G-actin monomers, the effects on ILK activation were dependent on thymosin β4's role in regulating the balance between polymerized F-actin and monomeric G-actin were tested.

The next assay deals with T1, PINCH (Mus musculus, UniProt Q99JW4).
T1 construct: made in house; host or cells: T7 phage amplified in E. coli BLT5615
T1 sequence (Q99JW4 whole entry): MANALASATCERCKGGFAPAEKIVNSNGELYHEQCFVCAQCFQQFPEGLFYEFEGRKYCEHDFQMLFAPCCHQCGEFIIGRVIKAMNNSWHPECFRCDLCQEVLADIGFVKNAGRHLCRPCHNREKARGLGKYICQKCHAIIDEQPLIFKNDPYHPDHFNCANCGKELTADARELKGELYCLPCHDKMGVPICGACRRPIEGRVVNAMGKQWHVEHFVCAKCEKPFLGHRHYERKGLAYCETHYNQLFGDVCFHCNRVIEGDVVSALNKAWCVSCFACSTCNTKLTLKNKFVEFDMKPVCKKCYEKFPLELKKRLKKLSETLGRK
In words: phage display ELISA and coimmunoprecipitation with PINCH. It is filed as binding. As to conditions: ELISA; coimmunoprecipitation in transfected cultured cells. From the text: (§1) To investigate the potential mechanisms through which thymosin β4 might be influencing cell migration and survival events, thymosin β4 interacting proteins were searched. The amino-terminus of thymosin β4 was fused with affi-gel beads resulting in exposure of the carboxy-terminus that allowed identification of previously unknown interacting proteins but prohibited association with actin. An E9.5-12.5 mouse heart T7 phage cDNA library was synthesized and screened by phage display and thymosin β4-interacting clones were enriched and confirmed by ELISA. […] PINCH and integrin linked kinase (ILK) interact directly with one another and indirectly with the actin cytoskeleton as part of a larger complex involved in cell-extracellular matrix interactions known as the focal adhesion complex. PINCH and ILK are required for cell motility and for cell survival, in part by promoting phosphorylation of the serine-threonine kinase Akt/protein kinase B, a central kinase in survival and growth signaling pathways. […] The PINCH interaction with thymosin β4 mapped to the fourth and fifth LIM domains of PINCH while the amino terminal ankryin domain of ILK was sufficient for thymosin β4 interaction.
300 ul of Affi-Gel 15 (Bio-Rad Laboratories) was coupled with 12 ug of synthesized thymosin β4 protein (RegeneRx) following the manufacturers manual, likely via amino terminal lysine residues. […]
A general note: ELISA stands for enzyme-linked immunosorbent assay.

The target in assay [2] is T2, integrin linked kinase (ILK) (Homo sapiens, UniProt Q13418).
T2 construct: expressed in transfected cells; host or cells: Cos and 10T1/2 cells
T2 sequence (Q13418 1-452): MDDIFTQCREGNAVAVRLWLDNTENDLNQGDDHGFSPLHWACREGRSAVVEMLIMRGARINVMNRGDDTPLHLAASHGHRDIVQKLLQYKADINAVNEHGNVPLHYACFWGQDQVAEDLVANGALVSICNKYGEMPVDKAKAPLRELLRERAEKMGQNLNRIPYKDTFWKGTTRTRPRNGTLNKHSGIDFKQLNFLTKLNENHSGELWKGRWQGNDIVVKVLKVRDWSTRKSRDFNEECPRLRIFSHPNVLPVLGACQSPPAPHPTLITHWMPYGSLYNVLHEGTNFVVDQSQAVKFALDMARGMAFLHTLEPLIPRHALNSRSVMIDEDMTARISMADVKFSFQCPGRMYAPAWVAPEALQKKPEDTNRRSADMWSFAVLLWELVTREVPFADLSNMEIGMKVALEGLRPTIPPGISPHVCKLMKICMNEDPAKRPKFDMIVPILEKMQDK
In words: coimmunoprecipitation with ILK. As to conditions: coimmunoprecipitation in transfected cultured cells. It counts as binding.
From the text: as §1
Cos and 10 T1/2 cells were transfected with thymosin β4, PINCH and/or ILK and lysates precipitated with antibodies to each as previously described. […]

Assay [3] has as its system ILK / Akt. In words: western blot of heart lysates after coronary ligation. It counts as in vivo, mouse. The protocol:
Because thymosin β4 upregulates ILK activity and Akt phosphorylation in cultured cells, the effects on these kinases in vivo were tested. […] Total Akt protein was not increased.
Myocardial infarction was produced in fifty-eight male C57BL/6J mice at 16 weeks of age (25-30 g) by ligation of the left anterior descending coronary artery as previously described. Twenty-nine of the ligated mice received thymosin β4 treatment immediately following ligation and the remaining twenty-nine received PBS injections. Treatment was given intracardiac with thymosin β4 (200 ng in 10 ul collagen) or with 10 ul of collagen; intraperitoneally with thymosin β4 (150 μg in 300 μl PBS) or with […]; or by both intracardiac and intraperitoneal injections. Intraperitoneal injections were given every three days until mice were sacrificed. Doses were based on previous studies of thymosin β4 biodistribution. Hearts were removed, weighed and fixed for histologic sectioning. Additional mice were operated on in a similar fashion for studies 0.5, 1, 3, 6 and 11 days after ligation.

thymosin β4: in the assay with ILK / Akt [1] (C2C12 cells), the “ILK protein levels (Western analysis)” value was “modest increase” and the “total Akt protein” value is reported as “unchanged”. Also, the “phosphorylation of Akt (serine 473)” value in the assay with ILK / Akt [1] (C2C12 cells, phospho-specific antibody) is “increased phosphorylation”. In addition, the “ILK detection by immunocytochemistry” value with ILK / Akt [1] (embryonic heart explants or C2C12 myoblasts, 10 ng/100 ul synthetic protein or expressing plasmid) is recorded as “markedly enhanced around the cell edges”. Moreover, the “interaction with PINCH” value with PINCH is “interacted with thymosin β4 in the absence of actin”. For the same substance, the “interaction with ILK” value in assay [2] is “weaker than with PINCH”. Further, in the assay on ILK / Akt [3], the “total Akt protein” value was “not increased”. In addition, in the assay with ILK / Akt [3] (compared with PBS treated mice), the “level of ILK protein in heart lysates” value is given as “increased”. The “amount of phosphorylated Akt-5473” value with ILK / Akt [3] (phospho-specific antibodies) was “elevation”.
